# Results as given in US20260327250A1, “3-ETHYLAMINO-INDOLE DIMERS AS SEROTONERGIC AGENTS USEFUL FOR THE TREATMENT OF DISORDERS RELATED THERETO” (MINDSET PHARMA INC., priority 2022, published 2026).
# “Also recorded” adds a separate entry of the source.
# Experiments:
# in vitro = conditions: human, liver microsomes, Remaining Percentage after 60 min, human liver microsomes, without cofactors
# Protocol: (§1) The concentrations of parent compounds in reaction systems were evaluated by LC-MS/MS for estimating the stability in pooled human, male rat and male mouse liver microsomes. The in vitro intrinsic clearances of test compounds were determined as well. Protocol
# (§2) A master solution in the “Incubation Plate” containing phosphate buffer, ultra-pure H2O, MgCl2 solution and liver microsomes was made according to Table 6. The mixture was pre-warmed at 37° C. water bath for 5 minutes.
# (§3) The reaction was started with the addition of 4 μL of 200 μM exemplary test compounds of the application or control compounds to each master solution to get the final concentration of 2 μM. This study was performed in duplicate.
# (§4) Aliquots of 50 μL were taken from the reaction solution at 0, 15, 30, 45 and 60 minutes. The reaction solutions were stopped by the addition of 4 volumes of cold methanol with IS (100 nM alprazolam, 200 nM imipramine, 200 nM labetalol and 2 μM ketoprofen). Samples were centrifuged at 3,220 g for 40 minutes. Aliquot of 90 μL of the supernatant was mixed with 90 μL of ultra-pure H2O and then was used for LC-MS/MS analysis.
# (§5) All calculations were carried out using Microsoft Excel. Peak area ratios of test compound to internal standard (listed in the below table) were determined from extracted ion chromatograms.
# (§6) All calculations were carried out using Microsoft Excel. Peak areas were determined from extracted ion chromatograms. The slope value, k, was determined by linear regression of the natural logarithm of the remaining percentage of the parent drug vs. incubation time curve.
# (§7) The in vitro half-life (in vitro t½) was determined from the slope value:
# (§8) Conversion of the in vitro t½ (min) into the in vitro intrinsic clearance (in vitro CLint, in μL/min/mg proteins) was done using the following equation (mean of duplicate determinations):
# [1] = Rat liver microsomes stability; conditions: Remaining Percentage after 60 min
# Protocol: as §1, §2, §3, §4, §5, §6, §7, §8
# [2] = Mouse liver microsomes stability; conditions: Remaining Percentage after 60 min
# Protocol: as §1, §2, §3, §4, §5, §6, §7, §8
# Caco-2 cell monolayers = test: Intestinal mucosal permeation using Caco-2 cell monolayers; conditions: for Efflux ratio: Papp (B→A) / Papp (A→B); for Efflux ratio / Percentage recovery A→B / Percentage recovery B→A: 120 min, 5 µM; for Papp A→B / Percentage recovery A→B: apical to basolateral; for Papp A→B / Papp B→A: 5 μM, 37° C., 2 hours, pH 7.4; for Papp B→A / Percentage recovery B→A: basolateral to apical
# Protocol: The Caco-2 cell culture medium was prepared consisting of Dulbecco's Modified Eagle's Medium (DMEM) with high glucose and L-glutamine supplemented with 10% FBS, 1× penicillin-streptomycin mixture and 1× non-essential amino acids (NEAA). • 2. The 50 μL of culture medium was added to each well of the Transwell insert. Transwell insert was removed from reservoir and 25 mL of culture medium was added. • 3. Incubated at 37° C., 5% CO2 for 1 hour. Plates were ready for cell seeding. • 4. The cells were cultivated in T-75 flasks in a cell culture incubator set at 37° C., 5% CO2, 95% relative humidity. The cells were allowed to reach 80-90% confluence before detaching and splitting. • 5. The cultivated cells were rinsed in T-75 flasks with 5 mL PBS. Aspirated off, 1.5 mL trypsin/EDTA was added, and incubated at 37° C. for approximately 5 to 10 minutes or until the cells detach and float. Trypsin/EDTA was inactivated by adding excess serum containing medium. • 6. The cell suspension was moved to a conical tube and cells were pelleted by centrifugation at 120×g for 10 minutes. • 7. The cells were resuspended in seeding medium at a density of 6.86×10^5 cells/mL. This cell concentration can be used to seed 2.40×10^5 cells/cm^2. […] Seeding and Feeding of Caco-2 Cells in Transwell Plates • 1. 50 μL of above cell suspension was added to each well of a previously prepared Transwell plate. • 2. The plate was incubated for 14-18 days. The medium was replaced every other day, beginning no sooner than 48 hours after initial plating. • 3. The procedure for medium changes was as follows. The plate was removed from incubator and placed in hood. The medium was aspirated from reservoir and each Transwell insert. 75 μL of culture medium was added to each well of Transwell inserts and 25 mL of culture medium was added to reservoir tray. The plate was returned to incubator.
# When the 14-day Caco-2 cultured cells have reached confluence and are differentiated, they were ready to be used for transport studies. • 2. The medium was removed from reservoir and Transwell inserts. • 3. 75 μL of pre-warmed culture medium was added to each transwell insert and 25 mL of reservoir tray. • 4. The electrical resistance across the monolayer was measured using automated tissue resistance measuring system (World Precision Instruments, Sarasota, FL). • 5. The electrical resistance was recorded for each well. • 6. Once all wells were measured, the plate was returned to incubator. • 7. TEER of each well was calculated by the equation below. The TEER value of each well should be greater than 230 ohms-cm^2. TEER measurement (ohms)×Area of membrane (cm^2)=TEER value (ohm-cm^2)
# The Caco-2 plate was removed from the incubator. Next, the monolayer was washed, and the volume exchanged two times using pre-warmed HBSS (10 mM HEPES, pH 7.4). Then the plate was incubated for 30 minutes at 37° C. • 1 mM stock solutions of control compounds and test compound(s) were prepared in DMSO and diluted with HBSS (10 mM HEPES, pH 7.4) to reach the final concentration of 5 μM. The final concentration of DMSO in the incubation system was 0.5%. Digoxin, prazosin and propranolol were used as control compounds in this assay. • 3. HBSS (10 mM HEPES, pH 7.4) was removed after 30 minutes pre-incubation. • 4. The rate of drug transport was incubated in the apical to basolateral direction. 75 μL of the control compounds and test compound was added to the Transwell insert (apical compartment). The wells were filled in the receiver plate (basolateral compartment) with 235 μL of HBSS (10 mM HEPES, pH 7.4). • 5. The rate of drug transport was determined in the basolateral to apical direction. 235 μL of the control compounds and test compound(s) was added to the receiver plate wells (basolateral compartment). The Transwell insert (apical compartment) was filled with 75 μL of HBSS (10 mM HEPES, pH 7.4). • 6. […] Incubated at 37° C. for 2 hours. • 8.
# 5-HT2 receptor = conditions: rat brain, daily administration; cited from earlier work
# [3] = test system: brain's default mode network; conditions: humans, intravenous; cited from earlier work
# [4] = patients; psilocybin-assisted psychotherapy or supportive setting; cited from earlier work
# [5] = EEG during sleep; cited from earlier work
# Protocol for Dog plasma stability: (§9) The stock solution of test compound was prepared in DMSO and diluted at the final concentration of 200 μM.
# (§10) • a. 2.5 μL of 200 μM or 1 mM test compound or control compound solution was spiked to 497.5 μL plasma to reach a final concentration of 1 μM or 5 μM. The final concentration of organic solvents was 0.5%. The assay was performed in duplicated. • b. The reaction samples were incubated at 37° C. at approximately 60 rpm in a water bath. • c. Aliquots of 50 μL were taken from the reaction samples at 0, 30, 60, 120, 180 and 240 minutes. The reaction was stopped by the addition of 7 volumes of cold acetonitrile containing internal standards (IS: 100 nM alprazolam, 200 nM imipramine, 200 nM labetalol and 2 μM ketoprofen). • d. All samples were vortexed for 2 minutes, followed by centrifugation at 3,220 g for 30 minutes to precipitate proteins. 100 μL of the supernatant was transferred to a new plate. The supernatant was diluted with ultrapure water according to the LC-MS signal response and peak shape.
# (§11) Samples were Analyzed by LC-MS/MS. • LC system: Shimadzu • MS analysis: Triple Quad™ 6500+ from AB Inc (Canada) with an ESI interface • Column temperature: 40° C. • Column: Xselect® Hss T3 2.5μ (2.1×30 mm) coupled with preguard column • Mobile phase: 0.1% formic acid in water (A) and 0.1% formic acid in acetonitrile (B)
# (§12) All calculations were carried out using Microsoft Excel. Remaining percentages of parent compounds at each time point were estimated by determining the peak area ratios from extracted ion chromatograms.
# Protocol for Human plasma stability: as §9, §10, §11, §12
# Protocol for Mouse plasma stability: as §9, §10, §11, §12
# Protocol for Rat plasma stability: as §9, §10, §11, §12
structure (smiles),measurement,setting,value
O=C(O)Cc1ccccc1Nc1c(Cl)cccc1Cl [Diclofenac],"remaining at 1 h, 2 µM",in vitro,95.9%
same,"remaining at 1 h, 2 µM",[1]; with cofactors,7.11%
same,"remaining at 1 h, 2 µM",[1]; without cofactors,97.9%
same,"remaining at 1 h, 2 µM",[2]; with cofactors,35.9%
same,"remaining at 1 h, 2 µM",[2]; without cofactors,97.9%
C[C@H]1O[C@@H](O[C@H]2[C@@H](O)C[C@H](O[C@H]3[C@@H](O)C[C@H](O[C@H]4CC[C@@]5(C)[C@H](CC[C@@H]6[C@@H]5C[C@@H](O)[C@]5(C)[C@@H](C7=CC(=O)OC7)CC[C@]65O)C4)O[C@@H]3C)O[C@@H]2C)C[C@H](O)[C@@H]1O [Digoxin],Efflux ratio,Caco-2 cell monolayers,35.38
same,Papp A→B,Caco-2 cell monolayers,0.53 cm/s × 10^−6
same,Percentage recovery A→B,Caco-2 cell monolayers,86.58%
same,Papp B→A,Caco-2 cell monolayers,18.89 cm/s × 10^−6
same,Percentage recovery B→A,Caco-2 cell monolayers,104.27%
CCN(CC)C(=O)[C@@H]1C=C2c3cccc4[nH]cc(c34)C[C@H]2N(C)C1 [LSD],5-HT2 receptor density,5-HT2 receptor,selectively decreased 5-HT2 receptor density in the rat brain; also recorded: reduce 5-HT2 receptor density in rat brain
same,oscillatory power,[3],decreases in oscillatory power in areas of the brain's default mode network
same,relief of depression and anxiety,[4],significant and sustained anti-depressant and anxiolytic effects
same,sleep patterns,[5],positively affect sleep patterns
"CC[C@H](C)C(=O)O[C@H]1C[C@@H](C)C=C2C=C[C@H](C)[C@H](CC[C@@H]3C[C@@H](O)CC(=O)O3)[C@H]21 [Lovastatin, reference compound]",Remaining Percentage,"Rat plasma stability; rat plasma, 0 min",100.00%
same,remaining at 0.5 h,"Rat plasma stability; rat, plasma",0%
same,remaining at 1 h,"Rat plasma stability; rat, plasma",0%
same,remaining at 2 h,"Rat plasma stability; rat, plasma",0%
same,remaining at 3 h,"Rat plasma stability; rat, plasma",0%
same,remaining at 4 h,"Rat plasma stability; rat, plasma",0%
same,Remaining Percentage,"Dog plasma stability; dog plasma, 0 min",100.00%
same,remaining at 0.5 h,"Dog plasma stability; dog, plasma",101%
same,remaining at 1 h,"Dog plasma stability; dog, plasma",64.8%
same,remaining at 2 h,"Dog plasma stability; dog, plasma",40.8%
same,remaining at 3 h,"Dog plasma stability; dog, plasma",22.4%
same,remaining at 4 h,"Dog plasma stability; dog, plasma",11%
COc1cc2nc(N3CCN(C(=O)c4ccco4)CC3)nc(N)c2cc1OC [Prazosin],Efflux ratio,Caco-2 cell monolayers,3.28
same,Papp A→B,Caco-2 cell monolayers,10.14 cm/s × 10^−6
same,Percentage recovery A→B,Caco-2 cell monolayers,79.47%
same,Papp B→A,Caco-2 cell monolayers,33.06 cm/s × 10^−6
same,Percentage recovery B→A,Caco-2 cell monolayers,104.81%
"CC(C)[N+](C)(CCOC(=O)C1c2ccccc2Oc2ccccc21)C(C)C [Propantheline, reference compound]",T1/2,"Human plasma stability; human plasma, 37° C., N.A. if no peak detected at 30 min",9.53 min
same,remaining at 0.5 h,"Human plasma stability; human, plasma",18.7%
same,remaining at 1 h,"Human plasma stability; human, plasma",1.28%
same,remaining at 3 h,"Human plasma stability; human, plasma",0%
same,remaining at 4 h,"Human plasma stability; human, plasma",0%
same,Remaining Percentage,"Mouse plasma stability; mouse plasma, 0 min",100.00%
same,T1/2,"Mouse plasma stability; mouse plasma, 37° C., N.A. if no peak detected at 30 min",34.36 min
same,remaining at 0.5 h,"Mouse plasma stability; mouse, plasma",65.3%
same,remaining at 1 h,"Mouse plasma stability; mouse, plasma",32.5%
same,remaining at 2 h,"Mouse plasma stability; mouse, plasma",9.12%
same,remaining at 3 h,"Mouse plasma stability; mouse, plasma",2.9%
same,remaining at 4 h,"Mouse plasma stability; mouse, plasma",0.87%
CC(C)NCC(O)COc1cccc2ccccc12 (stereo not drawn) [Propranolol],Efflux ratio,Caco-2 cell monolayers,0.69
same,Papp A→B,Caco-2 cell monolayers,33.5 cm/s × 10^−6
same,Percentage recovery A→B,Caco-2 cell monolayers,91.34%
same,Papp B→A,Caco-2 cell monolayers,23.09 cm/s × 10^−6
same,Percentage recovery B→A,Caco-2 cell monolayers,92.59%
